According to paper PMC10412597, “Small molecule branched-chain ketoacid dehydrogenase kinase (BDK) inhibitors with opposing effects on BDK protein levels” (Nature Communications, 2023):

Columns and labels:
Monoamine Oxidase A = biological target: T1, Monoamine Oxidase A (Homo sapiens, UniProt P21397); set-up: Cerep Bioprint off-target panel, enzyme or kinase inhibition; settings: inhibitor
T1 construct: gene MAOA
Experimental: (§1) To discover a potent and selective BDK inhibitor, a subset of the Pfizer compound collection was screened. […] Off target activity was assessed in both CEREP and kinase panels (Supplementary Tables 2, 3).

Phosphodiesterase 4D2 = biological target: T2, Phosphodiesterase 4D2 (Homo sapiens, UniProt Q08499); set-up: Cerep Bioprint off-target panel, enzyme or kinase inhibition; settings: inhibitor
T2 construct: gene PDE4D; isoform 4D2
Experimental: as §1

Adenosine A1 Receptor = biological target: T3, Adenosine A1 Receptor (Homo sapiens, UniProt P30542); set-up: Cerep Bioprint off-target panel, functional receptor agonism or antagonism; settings: agonist
T3 construct: gene ADORA1
T3 sequence (P30542 whole entry): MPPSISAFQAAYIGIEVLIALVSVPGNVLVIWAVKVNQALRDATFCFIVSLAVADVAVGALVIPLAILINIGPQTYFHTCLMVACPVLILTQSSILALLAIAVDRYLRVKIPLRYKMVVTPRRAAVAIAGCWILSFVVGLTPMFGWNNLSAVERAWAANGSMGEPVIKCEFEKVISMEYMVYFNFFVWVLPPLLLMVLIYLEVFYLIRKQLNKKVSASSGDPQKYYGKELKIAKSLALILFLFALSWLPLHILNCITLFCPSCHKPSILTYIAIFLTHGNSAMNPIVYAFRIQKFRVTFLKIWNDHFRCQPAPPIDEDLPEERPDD
Experimental: as §1

[1] = biological target: T4, Adrenergic Alpha 2a receptor (Homo sapiens, UniProt P08913); set-up: Cerep Bioprint off-target panel, functional receptor agonism or antagonism; settings: agonist
T4 construct: gene ADRA2A
Experimental: as §1

[2] = biological target: T5, Adrenergic Beta 1 Adrenoceptor (Homo sapiens, UniProt P08588); set-up: Cerep Bioprint off-target panel, functional receptor agonism or antagonism
T5 construct: gene ADRB1
T5 sequence (P08588 whole entry): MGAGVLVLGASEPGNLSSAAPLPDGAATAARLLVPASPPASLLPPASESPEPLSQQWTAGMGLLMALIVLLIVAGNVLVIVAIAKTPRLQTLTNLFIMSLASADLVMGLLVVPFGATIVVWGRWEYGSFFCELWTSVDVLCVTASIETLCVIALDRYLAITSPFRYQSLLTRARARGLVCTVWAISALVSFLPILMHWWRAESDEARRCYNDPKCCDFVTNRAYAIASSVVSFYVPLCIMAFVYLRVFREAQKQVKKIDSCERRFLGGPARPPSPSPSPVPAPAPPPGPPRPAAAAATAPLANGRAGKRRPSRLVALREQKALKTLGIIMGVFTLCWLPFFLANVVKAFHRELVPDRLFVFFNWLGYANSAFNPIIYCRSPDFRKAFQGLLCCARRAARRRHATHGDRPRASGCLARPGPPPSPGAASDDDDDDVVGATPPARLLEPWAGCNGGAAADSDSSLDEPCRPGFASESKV
Experimental: as §1

Angiotensin 1 = biological target: T6, Angiotensin 1 (Homo sapiens, UniProt P30556); set-up: Cerep Bioprint off-target panel, functional receptor agonism or antagonism
T6 construct: gene AGTR1
T6 sequence (P30556 1-359): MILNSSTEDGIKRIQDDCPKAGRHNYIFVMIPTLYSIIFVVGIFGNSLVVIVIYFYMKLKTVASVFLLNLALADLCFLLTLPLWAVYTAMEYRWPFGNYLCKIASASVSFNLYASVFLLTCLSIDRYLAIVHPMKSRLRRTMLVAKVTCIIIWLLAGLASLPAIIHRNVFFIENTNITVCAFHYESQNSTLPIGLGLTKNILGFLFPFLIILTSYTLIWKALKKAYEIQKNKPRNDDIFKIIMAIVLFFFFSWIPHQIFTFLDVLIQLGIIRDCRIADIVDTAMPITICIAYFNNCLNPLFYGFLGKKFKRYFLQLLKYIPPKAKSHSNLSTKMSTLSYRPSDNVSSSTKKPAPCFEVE
Experimental: as §1

Cannabinoid CB1 = biological target: T7, Cannabinoid CB1 (Homo sapiens, UniProt P21554); set-up: Cerep Bioprint off-target panel, functional receptor agonism or antagonism
T7 construct: gene CNR1
T7 sequence (P21554 whole entry): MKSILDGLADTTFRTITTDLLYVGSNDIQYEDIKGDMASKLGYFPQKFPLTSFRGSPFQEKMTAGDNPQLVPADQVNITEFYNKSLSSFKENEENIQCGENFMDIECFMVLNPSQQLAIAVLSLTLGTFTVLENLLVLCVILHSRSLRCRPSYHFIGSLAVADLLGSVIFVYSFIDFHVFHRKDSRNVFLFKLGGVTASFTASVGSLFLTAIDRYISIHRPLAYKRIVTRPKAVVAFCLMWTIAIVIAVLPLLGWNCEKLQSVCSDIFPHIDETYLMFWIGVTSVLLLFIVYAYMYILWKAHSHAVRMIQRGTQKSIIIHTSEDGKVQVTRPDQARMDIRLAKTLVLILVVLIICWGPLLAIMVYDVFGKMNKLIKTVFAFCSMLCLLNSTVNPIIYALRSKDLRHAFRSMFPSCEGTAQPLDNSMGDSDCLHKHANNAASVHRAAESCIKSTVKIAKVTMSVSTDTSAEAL
Experimental: as §1

Cholecystokinin 2 = biological target: T8, Cholecystokinin 2 (Homo sapiens, UniProt P32239); set-up: Cerep Bioprint off-target panel, functional receptor agonism or antagonism; settings: agonist
T8 construct: gene CCKBR
T8 sequence (P32239 whole entry): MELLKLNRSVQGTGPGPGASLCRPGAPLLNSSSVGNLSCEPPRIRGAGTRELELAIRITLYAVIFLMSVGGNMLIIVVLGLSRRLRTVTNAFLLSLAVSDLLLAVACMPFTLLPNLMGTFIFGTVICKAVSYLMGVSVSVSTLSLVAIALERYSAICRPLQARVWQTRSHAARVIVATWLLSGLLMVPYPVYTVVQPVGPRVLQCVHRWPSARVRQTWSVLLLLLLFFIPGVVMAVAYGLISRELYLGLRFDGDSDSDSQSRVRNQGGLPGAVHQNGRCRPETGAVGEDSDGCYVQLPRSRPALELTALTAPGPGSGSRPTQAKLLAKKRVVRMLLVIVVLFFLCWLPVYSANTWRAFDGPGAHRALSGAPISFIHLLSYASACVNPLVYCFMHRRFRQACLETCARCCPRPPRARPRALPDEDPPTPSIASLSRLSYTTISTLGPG
Experimental: as §1

Delta Opioid Receptor = biological target: T9, Delta Opioid Receptor (Homo sapiens, UniProt P41143); set-up: Cerep Bioprint off-target panel, functional receptor agonism or antagonism; settings: agonist
T9 construct: gene OPRD1
Experimental: as §1

Dopamine D1 = biological target: T10, Dopamine D1 (Homo sapiens, UniProt P21728); set-up: Cerep Bioprint off-target panel, functional receptor agonism or antagonism
T10 construct: gene DRD1
T10 sequence (P21728 whole entry): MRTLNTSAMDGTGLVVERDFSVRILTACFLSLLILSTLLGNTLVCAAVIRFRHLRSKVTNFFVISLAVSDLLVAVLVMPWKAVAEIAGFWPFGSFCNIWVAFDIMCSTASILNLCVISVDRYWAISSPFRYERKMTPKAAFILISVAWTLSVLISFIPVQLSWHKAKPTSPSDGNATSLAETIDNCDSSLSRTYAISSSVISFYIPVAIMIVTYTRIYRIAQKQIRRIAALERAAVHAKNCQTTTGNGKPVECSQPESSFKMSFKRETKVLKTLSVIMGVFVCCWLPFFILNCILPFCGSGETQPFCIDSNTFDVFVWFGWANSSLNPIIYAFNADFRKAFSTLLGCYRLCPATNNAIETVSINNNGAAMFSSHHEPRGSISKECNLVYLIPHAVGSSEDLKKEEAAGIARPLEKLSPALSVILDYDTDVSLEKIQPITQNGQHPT
Experimental: as §1

Histamine H2 = biological target: T11, Histamine H2 (Homo sapiens, UniProt P25021); set-up: Cerep Bioprint off-target panel, functional receptor agonism or antagonism; settings: agonist
T11 construct: gene HRH2
T11 sequence (P25021 whole entry): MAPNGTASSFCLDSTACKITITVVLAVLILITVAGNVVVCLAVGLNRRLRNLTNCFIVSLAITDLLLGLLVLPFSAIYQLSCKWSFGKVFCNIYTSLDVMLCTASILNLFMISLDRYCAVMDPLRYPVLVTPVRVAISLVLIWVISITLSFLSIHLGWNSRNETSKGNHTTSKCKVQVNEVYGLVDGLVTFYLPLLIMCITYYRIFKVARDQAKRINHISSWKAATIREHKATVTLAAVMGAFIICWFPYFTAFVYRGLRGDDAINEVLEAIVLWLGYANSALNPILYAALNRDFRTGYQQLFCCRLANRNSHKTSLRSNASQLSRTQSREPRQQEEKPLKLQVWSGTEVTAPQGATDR
Experimental: as §1

Kappa Opioid = biological target: T12, Kappa Opioid (Homo sapiens, UniProt P41145); set-up: Cerep Bioprint off-target panel, functional receptor agonism or antagonism; settings: agonist
T12 construct: gene OPRK1
Experimental: as §1

[3] = biological target: T13, Melanocortin MC2 Receptor (Homo sapiens, UniProt Q01718); set-up: Cerep Bioprint off-target panel, functional receptor agonism or antagonism
T13 construct: gene MC2R
T13 sequence (Q01718 whole entry): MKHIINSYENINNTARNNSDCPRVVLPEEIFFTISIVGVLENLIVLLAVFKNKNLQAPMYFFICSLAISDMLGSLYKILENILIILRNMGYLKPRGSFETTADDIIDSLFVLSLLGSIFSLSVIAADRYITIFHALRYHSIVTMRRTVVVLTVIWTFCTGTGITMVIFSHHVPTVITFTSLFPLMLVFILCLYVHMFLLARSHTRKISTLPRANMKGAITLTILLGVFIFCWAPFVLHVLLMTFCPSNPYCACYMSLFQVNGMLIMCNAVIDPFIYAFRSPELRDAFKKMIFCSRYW
Experimental: as §1

Mu Opiod = biological target: T14, Mu Opiod (Homo sapiens, UniProt P35372); set-up: Cerep Bioprint off-target panel, functional receptor agonism or antagonism; settings: antagonist
T14 construct: gene OPRM1
T14 sequence (P35372 whole entry): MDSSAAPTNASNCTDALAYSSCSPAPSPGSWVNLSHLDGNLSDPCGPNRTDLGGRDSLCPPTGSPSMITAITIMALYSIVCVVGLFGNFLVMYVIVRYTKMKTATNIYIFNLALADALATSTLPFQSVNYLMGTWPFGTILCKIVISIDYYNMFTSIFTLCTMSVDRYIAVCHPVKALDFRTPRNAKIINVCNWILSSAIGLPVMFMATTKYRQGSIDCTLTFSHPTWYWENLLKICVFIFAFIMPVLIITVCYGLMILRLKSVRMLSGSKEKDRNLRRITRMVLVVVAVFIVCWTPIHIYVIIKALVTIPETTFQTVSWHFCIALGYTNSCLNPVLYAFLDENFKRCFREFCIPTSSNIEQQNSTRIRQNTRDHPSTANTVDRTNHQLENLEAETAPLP
Experimental: as §1

Mu Opioid = biological target: T15, Mu Opioid (Homo sapiens, UniProt P35372); set-up: Cerep Bioprint off-target panel, functional receptor agonism or antagonism; settings: agonist
T15 construct: gene OPRM1
T15 sequence (P35372 whole entry): as above
Experimental: as §1

Muscarinic 3 = biological target: T16, Muscarinic 3 (Homo sapiens, UniProt P20309); set-up: Cerep Bioprint off-target panel, functional receptor agonism or antagonism
T16 construct: gene CHRM3
T16 sequence (P20309 whole entry): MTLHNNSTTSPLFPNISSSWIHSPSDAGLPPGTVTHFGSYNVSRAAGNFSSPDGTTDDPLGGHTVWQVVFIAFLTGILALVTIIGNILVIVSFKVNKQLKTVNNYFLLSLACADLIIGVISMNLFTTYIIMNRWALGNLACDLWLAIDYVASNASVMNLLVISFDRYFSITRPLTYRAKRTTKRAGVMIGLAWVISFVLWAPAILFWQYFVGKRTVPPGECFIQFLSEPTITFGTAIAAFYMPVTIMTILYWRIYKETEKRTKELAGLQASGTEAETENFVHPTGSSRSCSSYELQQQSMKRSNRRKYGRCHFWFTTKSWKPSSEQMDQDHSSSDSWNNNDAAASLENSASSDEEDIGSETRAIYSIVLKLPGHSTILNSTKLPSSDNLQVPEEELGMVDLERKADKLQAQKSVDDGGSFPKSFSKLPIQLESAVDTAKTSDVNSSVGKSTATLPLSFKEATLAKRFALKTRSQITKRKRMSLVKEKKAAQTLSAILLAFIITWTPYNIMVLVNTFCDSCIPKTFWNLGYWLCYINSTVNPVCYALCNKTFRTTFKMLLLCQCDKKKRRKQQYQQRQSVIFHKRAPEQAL
Experimental: as §1

Serotonin 5-HT2b = biological target: T17, Serotonin 5-HT2b (Homo sapiens, UniProt P41595); set-up: Cerep Bioprint off-target panel, functional receptor agonism or antagonism; settings: agonist
T17 construct: gene HTR2B
Experimental: as §1

Serotonin 5-HT4e = biological target: T18, Serotonin 5-HT4e (Homo sapiens, UniProt Q13639); set-up: Cerep Bioprint off-target panel, functional receptor agonism or antagonism; settings: agonist
T18 construct: gene HTR4; isoform 4e
T18 sequence (Q13639 whole entry, canonical isoform): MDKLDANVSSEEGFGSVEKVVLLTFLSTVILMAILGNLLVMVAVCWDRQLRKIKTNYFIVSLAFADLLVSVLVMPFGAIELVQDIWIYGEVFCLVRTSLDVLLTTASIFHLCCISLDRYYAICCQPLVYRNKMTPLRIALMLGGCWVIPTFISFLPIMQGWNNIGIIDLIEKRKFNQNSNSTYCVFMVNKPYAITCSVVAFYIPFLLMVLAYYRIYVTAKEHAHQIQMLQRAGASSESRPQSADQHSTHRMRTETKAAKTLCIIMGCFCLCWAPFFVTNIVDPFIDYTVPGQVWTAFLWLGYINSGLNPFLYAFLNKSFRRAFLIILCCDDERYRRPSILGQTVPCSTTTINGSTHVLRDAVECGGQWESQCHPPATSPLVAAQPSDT
Experimental: as §1

[4] = biological target: T19, Thyrotopin Releasing Hormone 1 (TRH1) Receptor (Homo sapiens, UniProt P34981); set-up: Cerep Bioprint off-target panel, functional receptor agonism or antagonism
T19 construct: gene TRHR
T19 sequence (P34981 1-398): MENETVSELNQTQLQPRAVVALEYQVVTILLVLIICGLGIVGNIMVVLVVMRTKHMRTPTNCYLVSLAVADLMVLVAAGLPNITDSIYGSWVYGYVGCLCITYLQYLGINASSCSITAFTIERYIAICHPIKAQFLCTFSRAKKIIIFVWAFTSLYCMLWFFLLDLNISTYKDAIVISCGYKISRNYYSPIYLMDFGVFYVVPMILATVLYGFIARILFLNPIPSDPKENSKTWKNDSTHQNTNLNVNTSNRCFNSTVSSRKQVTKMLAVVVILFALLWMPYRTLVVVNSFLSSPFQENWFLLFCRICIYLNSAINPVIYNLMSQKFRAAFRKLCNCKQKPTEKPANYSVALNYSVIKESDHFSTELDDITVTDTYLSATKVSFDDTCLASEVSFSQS
Experimental: as §1

T1 sequence (P21397 whole entry): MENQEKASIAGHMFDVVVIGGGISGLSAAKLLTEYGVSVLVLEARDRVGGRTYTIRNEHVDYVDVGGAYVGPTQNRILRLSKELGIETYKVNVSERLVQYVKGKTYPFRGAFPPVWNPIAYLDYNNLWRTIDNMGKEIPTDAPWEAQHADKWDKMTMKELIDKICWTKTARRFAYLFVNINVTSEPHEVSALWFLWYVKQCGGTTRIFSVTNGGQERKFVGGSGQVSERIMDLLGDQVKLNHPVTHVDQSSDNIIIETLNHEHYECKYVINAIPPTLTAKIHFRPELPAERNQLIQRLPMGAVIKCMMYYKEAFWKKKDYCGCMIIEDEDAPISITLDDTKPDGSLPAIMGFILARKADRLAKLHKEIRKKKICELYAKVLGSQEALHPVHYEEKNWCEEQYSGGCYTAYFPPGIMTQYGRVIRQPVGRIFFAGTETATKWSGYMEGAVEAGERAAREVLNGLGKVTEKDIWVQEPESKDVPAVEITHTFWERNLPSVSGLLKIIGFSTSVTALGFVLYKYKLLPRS

O=C(O)c1sc2cc(F)sc2c1Cl [PF-07208254, 3-chloro-5-fluorothieno[3,2-b]thiophene-2-carboxylic acid]
% Inhibition PF-07208254 (Monoamine Oxidase A; 100 µM): 0%
% Inhibition PF-07208254 (Phosphodiesterase 4D2; 100 µM): -11%
% (agonism) PF-07208254 (Adenosine A1 Receptor; 100 µM): 0%
% (agonism) PF-07208254 ([1]; 100 µM): -1%
% (agonism) PF-07208254 ([2]; 100 µM, agonist): 2%
% Inhibition (antagonism) PF-07208254 ([2]; 100 µM, antagonist): 8%
% (agonism) PF-07208254 (Angiotensin 1; 100 µM, agonist): 3%
% Inhibition (antagonism) PF-07208254 (Angiotensin 1; 100 µM, antagonist): 18%
% (agonism) PF-07208254 (Cannabinoid CB1; 100 µM, agonist): 55%
% Inhibition (antagonism) PF-07208254 (Cannabinoid CB1; 100 µM, antagonist): -10%
% (agonism) PF-07208254 (Cholecystokinin 2; 100 µM): 0%
% (agonism) PF-07208254 (Delta Opioid Receptor; 100 µM): -2%
% (agonism) PF-07208254 (Dopamine D1; 100 µM, agonist): -4%
% Inhibition (antagonism) PF-07208254 (Dopamine D1; 100 µM, antagonist): -5%
% (agonism) PF-07208254 (Histamine H2; 100 µM): 0%
% (agonism) PF-07208254 (Kappa Opioid; 100 µM): -3%
% (agonism) PF-07208254 ([3]; 100 µM, agonist): 0%
% Inhibition (antagonism) PF-07208254 ([3]; 100 µM, antagonist): -4%
% Inhibition (antagonism) PF-07208254 (Mu Opiod; 100 µM): 2%
% (agonism) PF-07208254 (Mu Opioid; 100 µM): 16%
% (agonism) PF-07208254 (Muscarinic 3; 100 µM, agonist): 0%
% Inhibition (antagonism) PF-07208254 (Muscarinic 3; 100 µM, antagonist): 18%
% (agonism) PF-07208254 (Serotonin 5-HT2b; 100 µM): -5%
% (agonism) PF-07208254 (Serotonin 5-HT4e; 100 µM): 6%
% (agonism) PF-07208254 ([4]; 100 µM, agonist): 4%
% Inhibition (antagonism) PF-07208254 ([4]; 100 µM, antagonist): -5%

CCC1(COc2ccc(-c3csc(-c4ccccc4C(=O)O)n3)cn2)CC1 [PF-07247685, 2-(4-{6-[(1-ethylcyclopropyl)methoxy]pyridin-3-yl}-1,3-thiazol-2-yl)benzoic acid]
% Inhibition PF-07247685 (Monoamine Oxidase A; 10 µM): 12%
% Inhibition PF-07247685 (Phosphodiesterase 4D2; 10 µM): -24%
% (agonism) PF-07247685 (Adenosine A1 Receptor; 10 µM): 0%
% (agonism) PF-07247685 ([1]; 10 µM): 0%
% (agonism) PF-07247685 ([2]; 10 µM, agonist): 6%
% Inhibition (antagonism) PF-07247685 ([2]; 10 µM, antagonist): 27%
% (agonism) PF-07247685 (Angiotensin 1; 10 µM, agonist): -8%
% Inhibition (antagonism) PF-07247685 (Angiotensin 1; 10 µM, antagonist): 5%
% (agonism) PF-07247685 (Cannabinoid CB1; 10 µM, agonist): 39%
% Inhibition (antagonism) PF-07247685 (Cannabinoid CB1; 10 µM, antagonist): -4%
% (agonism) PF-07247685 (Cholecystokinin 2; 10 µM): -8%
% (agonism) PF-07247685 (Delta Opioid Receptor; 10 µM): -1%
% (agonism) PF-07247685 (Dopamine D1; 10 µM, agonist): 4%
% Inhibition (antagonism) PF-07247685 (Dopamine D1; 10 µM, antagonist): 5%
% (agonism) PF-07247685 (Histamine H2; 10 µM): 1%
% (agonism) PF-07247685 (Kappa Opioid; 10 µM): -7%
% (agonism) PF-07247685 ([3]; 10 µM, agonist): 0%
% Inhibition (antagonism) PF-07247685 ([3]; 10 µM, antagonist): 18%
% Inhibition (antagonism) PF-07247685 (Mu Opiod; 10 µM): -3%
% (agonism) PF-07247685 (Mu Opioid; 10 µM): -3%
% (agonism) PF-07247685 (Muscarinic 3; 10 µM, agonist): -1%
% Inhibition (antagonism) PF-07247685 (Muscarinic 3; 10 µM, antagonist): 3%
% (agonism) PF-07247685 (Serotonin 5-HT2b; 10 µM): -5%
% (agonism) PF-07247685 (Serotonin 5-HT4e; 10 µM): 0%
% (agonism) PF-07247685 ([4]; 10 µM, agonist): 4%
% Inhibition (antagonism) PF-07247685 ([4]; 10 µM, antagonist): 10%
